According to patent US20240299400A1, “Transcription Factor GLI1 Inhibitors and Uses Thereof” (University of Connecticut, priority 2023, published 2024):
Each block holds one molecule with its values, some of them ahead of it.

Columns and labels:
Ptch1 mRNA expression = assay: RT-qPCR Ptch1 mRNA expression in ASZ001 cells; type: cell-based, mouse; settings: FIG. 4A
Procedure: (§1) ASZ001 and Sufu-KO cells were seeded in 96-well plates (10,000/well, 100 μL) and incubated overnight under growth conditions. On the second day, ‘growth’ media was removed and replaced by ‘assay’ media (100 μL). On the third day, cells were treated with a serial dilution of drugs or DMSO for 48 h. mRNA expression was determined through Taqman Fast Cells-to-CT Kit (#4399003) per the manufacturer's instructions. In brief, cells were washed with chilled PBS, then mixed with lysis solution containing DNase I and incubated at RT for 5 min. Stop solution was then added to quench the lysis reagents. cDNA was then synthesized through a BioRad MyCycler following addition of reverse transcriptase. Finally, the cDNA was amplified through an ABI 7500 system following addition of Taqman Fast Universal PCR Master Mix and Taqman Gene Expression Primer. Relative gene expression levels were computed by the ΔΔCt method. Values represent mRNA expression relative to DMSO control (set at 1.0). Data were analyzed using GraphPad Prism, and IC50 values are the mean±SEM for at least two separate experiments performed in triplicate. Primers used are as follows: mouse ActB (Mm00607939_s1); mouse GLI1 (Mm00494645_ml); mouse Gli2 (Mm01293117_ml); mouse Ptch1 (Mm00436026_ml); mouse Hhip (Mm00469580_ml).

DAOY (MB) = assay: MTS anti-proliferative assay in DAOY cells; type: cell-based; settings: Table 8, 48 h, mean ± SEM
Procedure: (§2) Cell viability was assessed by MTS proliferation assay kit (Promega) per manufacturer's protocol. Briefly, 2×10^4 cells were plated in a 96-well plate in 100 μL growth medium to make the cell population at ˜80% confluence. After 24 h, 1 μL drug solution was added to each well. DMSO was used as vehicle compound. After 48 h incubation (37° C., 5% CO2), 20 μL of freshly prepared 3-(4,5-dimethylthiazol-2-yl)-5-(3-carboxymethoxyphenyl)-2-(4-sulfophenyl)-2H-tetrazolium (MTS)/phenazine methosulfate (PMS) solution was added to each well, and the plate was returned to the incubator for 1 h. Absorbance at 490 nm was recorded, and the result was analyzed by GraphPad Prism 5. GI50 values represent mean±SEM for at least two separate experiments performed in triplicate.

GLI2 protein expression = assay: Western blot GLI2 protein expression in ASZ001 cells; type: cell-based, murine; settings: 25 μM
Procedure: (§3) ASZ001 cells were plated as described above and treated with drugs or vehicle control. Following incubation, cells were washed with chilled PBS and lysed with RIPA buffer containing […] PMSF protease inhibitor (Thermo Scientific #26978). Supernatant was collected following 15 min centrifugation at 12,000 rpm and 4° C. Protein concentrations from cell extracts were determined through the BCA kit (Pierce #23228) per the manufacturer's instructions. Proteins from either cell lysate or cell-free biochemical assay were then loaded on 12% SDS-PAGE. Following electrophoresis, proteins were transferred onto nitrocellulose membrane at 100 V for 120 min at 4° C. On a clean tray with constant gentle shaking, the membrane was sequentially submerged in 5% BSA for 1 h, and incubated with the primary antibody indicated overnight at 4° C. After washes with TBST, the appropriate secondary antibody was added to the tray for a 2 h incubation at RT. Chemiluminescent detection on film was visualized using ECL reagents (BioRad #1705060) and subsequently quantitated using Image J (http://imagej.nih.gov). Primary antibodies were used at 1:2000 dilution and are as follows: GLI1 (#MA5-32553); Gli2 (#PA5-79314); β-Actin (#PA1-16889). Secondary antibody (Goat anti-Rabbit, #32460) was used at a 1:5000 dilution. All antibodies were purchased from Invitrogen.

ASZ001 cells = assay: MTS anti-proliferative assay in ASZ001 cells; type: cell-based, murine; settings: Table 5, 48 h, Ave ± SEM
GLI1 protein levels = assay: Western blot GLI1 protein expression in ASZ001 cells; type: cell-based, murine; settings: 25 μM
Procedure: as §3

GLI1 mRNA expression [1] = assay: RT-qPCR GLI1 mRNA expression in OHCs-stimulated C3H10T1/2 MEFs; type: cell-based, mouse; settings: for % Gli1 Expression: C3H10T1/2 MEFs, 10 μM, relative to Hh-agonist OHCs (set as 100%); for IC50: Mus musculus
Procedure: as §1
C3H10T1/2 MEFs were seeded in 24-well plates (50,000/well, 500 μL). Following 24 h incubation, the ‘growth’ media was removed and replaced with ‘assay’ media (500 μL). On the third day, cells were treated with either DMSO, OHCs, or OHCs+drugs. Following a 24 h incubation, gene expression analysis was carried out following identical protocols as described above.

Gli2 mRNA expression = assay: RT-qPCR Gli2 mRNA expression in ASZ001 cells; type: cell-based, mouse; settings: 10 μM
Procedure: as §1

GLI1-ZFD = molecular target: T1, GLI1-ZFD (Homo sapiens, UniProt P08151); assay: Microscale thermophoresis (MST) binding to GLI1-ZFD
T1 construct: GLI1-ZFD Expression and Purification; made in house
T1 sequence (P08151 234-388 limits assumed): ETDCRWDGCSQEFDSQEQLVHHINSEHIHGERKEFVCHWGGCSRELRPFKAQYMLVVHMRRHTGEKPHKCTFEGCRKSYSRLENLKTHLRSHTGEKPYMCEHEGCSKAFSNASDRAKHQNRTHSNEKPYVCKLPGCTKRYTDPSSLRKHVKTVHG
Procedure: The protein expression and purification experiments followed the previous reported procedures [C. A. Maschinot, et al., Synthesis and evaluation of third generation vitamin D3 analogues as inhibitors of hedgehog signaling. Euro. J. Med. Chem. 162 (2019) 495-506].
GLI1 protein labeling was performed through the Monolith Protein Labeling Kit RED-NHS 2nd Generation (Nanotemper #MO-LO11) per the manufacturer's instructions. Briefly, GLI1 (100 μg, 1 mg/mL) underwent buffer exchange to remove incompatible ingredients like Tris or DTT. Proteins in the Labeling Buffer were incubated with freshly prepared dye (˜3-fold excess of dye) for 30 min at RT in the dark. Unreacted ‘free’ dye was removed by a gel-filtration column. Protein concentration and degree-of-labeling were calculated by measuring absorption at 280 nm and 650 nm. For each assay, 200 nM GLI1 in MST Buffer was mixed with compound dilution in DMSO (DMSO<5%, v/v). The mixture was then loaded to a capillary and the thermophoresis was subsequently determined through Monolith NT.115 station. Results were analyzed by MO.Affinity Analysis software and visualized by Graphpad Prism. MST Buffer: 50 mM HEPES, pH 8.3, 100 mM NaCl.

PANC-1 (pancreatic) = assay: MTS anti-proliferative assay in PANC-1 cells; type: cell-based; settings: Table 8, 48 h, mean ± SEM
Procedure: as §2

GLI1 mRNA expression [2] = assay: RT-qPCR GLI1 mRNA expression in Sufu-KO MEFs; type: cell-based, mouse
GLI1 mRNA expression [3] = assay: RT-qPCR GLI1 mRNA expression in ASZ001 BCC cells; type: cell-based, mouse
Hhip mRNA expression = assay: RT-qPCR Hhip mRNA expression in ASZ001 cells; type: cell-based, mouse; settings: 10 μM, FIG. 4A
Procedure: as §1

IC50 (GLI1 mRNA expression [1]; C3H 10T1/2, Table 2, mean ± SEM, read-out: GLI1 mRNA expression, IC50 C3H10T1/2): 0.26 ± 0.16 µM
IC50 (GLI1 mRNA expression [1]; C3H 10T1/2, Table 4, racemates and enantiomers, mean ± SEM, read-out: RT-qPCR, IC50 C3H10T1/2): 0.26 ± 0.16 µM
Kd (GLI1-ZFD; Table 2, mean ± SEM): 13.4 ± 4 µM
Kd (GLI1-ZFD; Table 4, mean ± SEM): 13.4 ± 4 µM
Kd (GLI1-ZFD; Table 5, Ave ± SEM): 13.8 ± 3.4 µM
GI50 (PANC-1 (pancreatic); Homo sapiens, PANC-1): 21.1 ± 4.2 µM
IC50 (GLI1 mRNA expression [2]; Mus musculus, Table 2, mean ± SEM, read-out: GLI1 mRNA expression, IC50 Sufu-KO): 1.5 ± 0.5 µM
IC50 (GLI1 mRNA expression [2]; Mus musculus, Table 4, racemates and enantiomers, mean ± SEM, read-out: RT-qPCR, IC50 Sufu-KO): 1.5 ± 0.5 µM
IC50 (GLI1 mRNA expression [2]; Mus musculus, Table 5, GLI1 mRNA, Ave ± SEM, read-out: RT-qPCR, IC50 Sufu-KO): 1.5 ± 0.5 µM
IC50 (GLI1 mRNA expression [3]; Mus musculus, ASZ001, Table 2, mean ± SEM, read-out: GLI1 mRNA expression, IC50 ASZ001): 1.3 ± 0.7 µM
IC50 (GLI1 mRNA expression [3]; Mus musculus, ASZ001, Table 4, racemates and enantiomers, mean ± SEM, read-out: RT-qPCR, IC50 ASZ001): 1.3 ± 0.7 µM
IC50 (GLI1 mRNA expression [3]; Mus musculus, ASZ001, Table 5, GLI1 mRNA, Ave ± SEM, read-out: RT-qPCR, IC50 ASZ001): 1.3 ± 0.7 µM
SMILES: CCN(CC)c1ccc(C(Nc2ccccn2)c2ccc3ccc(C)nc3c2O)cc1 (centres unmarked) [Compound 1]
Ptch1 mRNA expression (in words) (Ptch1 mRNA expression): significantly down-regulated
GI50 (DAOY (MB); Homo sapiens, Daoy): 14.1 ± 2 µM
GLI2 protein expression (in words) (GLI2 protein expression): significantly suppressed
GI50 (ASZ001 cells; Mus musculus, ASZ001): 13.8 ± 3.4 µM
GLI1 protein levels (in words) (GLI1 protein levels): significantly down-regulated
% Gli1 Expression (GLI1 mRNA expression [1]; mean ± SEM): 5.9 ± 0.5%
inhibition of Gli2 mRNA expression, rank (in words) (Gli2 mRNA expression): most active

Kd (GLI1-ZFD; Table 5, Ave ± SEM): 65.2 ± 15.2 µM
GI50 (PANC-1 (pancreatic)): 35.2 ± 7.5 µM
IC50 (GLI1 mRNA expression [2]; Table 5, GLI1 mRNA, Ave ± SEM, read-out: RT-qPCR, IC50 Sufu-KO): 5.3 ± 1.4 µM
IC50 (GLI1 mRNA expression [3]; Table 5, GLI1 mRNA, Ave ± SEM, read-out: RT-qPCR, IC50 ASZ001): 11.1 ± 1.5 µM
SMILES: CN(C)c1ccccc1CN1CCCN(Cc2ccccc2N(C)C)C1c1ccncc1 [GANT61, reference compound]
GI50 (DAOY (MB)): 27.2 ± 3.6 µM
GLI2 protein expression (in words) (GLI2 protein expression): inactive
expression of Hhip mRNA (in words) (Hhip mRNA expression): more effective at reducing Hhip expression compared to GLI1
GI50 (ASZ001 cells): 57.5 ± 14 µM
GLI1 protein levels (in words) (GLI1 protein levels): significantly down-regulated
% Gli1 Expression (GLI1 mRNA expression [1]; mean ± SEM): 72.4 ± 5.6%
